Assay results reported in article PMC11601581 (bioRxiv, 2024).

Target: NTSR1 (Homo sapiens, UniProt P30989)
Test: BRET1 β-arrestin1/2 recruitment to NTSR1, ligand alone
Assay type: cell-based

NTSR1, sequence (P30989 whole entry): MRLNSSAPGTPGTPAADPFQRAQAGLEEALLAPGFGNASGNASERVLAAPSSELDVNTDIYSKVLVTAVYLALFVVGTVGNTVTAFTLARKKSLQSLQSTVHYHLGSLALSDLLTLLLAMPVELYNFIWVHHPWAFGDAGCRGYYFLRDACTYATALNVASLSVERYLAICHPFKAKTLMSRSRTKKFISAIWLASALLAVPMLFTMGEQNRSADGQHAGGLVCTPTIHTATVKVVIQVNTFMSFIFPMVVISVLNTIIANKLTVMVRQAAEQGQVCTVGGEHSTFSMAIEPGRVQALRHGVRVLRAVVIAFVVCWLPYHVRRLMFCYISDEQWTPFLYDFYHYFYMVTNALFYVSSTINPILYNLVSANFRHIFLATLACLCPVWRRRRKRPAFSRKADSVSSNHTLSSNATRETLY

- agonist efficacy (β-arrestin1): without effect
- agonist efficacy (β-arrestin2): without effect
Structure (SMILES): COc1cccc(OC)c1-c1cc(C(=O)NC2(C(=O)O)C3CC4CC(C3)CC2C4)nn1-c1ccc(C(=O)N(C)CCCN(C)C)cc1C(C)C (centres unmarked) [SR142948A]
